What was measured:
Type in all cases: cell-based
[1] = test system: Human lung cancer cells A549; assay: MTS cell growth inhibition, A549
Protocol: (§1) 1) Medium: DMEM (Dulbecco's modified eagle medium) or RPMI1640 (containing 10% fetal bovine serum, 100 μg/mL ampicillin, 100 μg/mL streptomycin).
(§2) 2) Reagent: MTS reaction solution (containing 2 mg/mL of MTS (3-(4,5-dimethylthiazol-2-yl)-5-(3-carboxymethoxyphenyl)-2-(4-sulfophenyl)-2H-tetrazolium, inner salt); 100 μg/mL PES ([…])).
(§3) Human promyelocytic leukemia cells HL-60 (2×10^4 cells/well) cultured in vitro were incubated into a 96-well culture plate, the volume of cell-culture medium was 90 μL, and then 10 μL of the compound at each gradient concentration was added (the highest concentration was 10 μM, which was diluted stepwise by ⅓, and 8 concentration points were set in total; the system contained 0.1% DMSO (dimethyl sulfoxide)). The cell plate with uniformly mixed compound was cultured in a cell culture incubator (37° C.; 5% CO2) for 48 h, then 20 μμL of MTS reaction solution was added, uniformly mixed and incubated in the cell culture incubator (37° C.; 5% CO2) for 1-4 hr; OD values at 490 nm were measured by a microplate reader (VARIOSKAN FLASH, Thermo). Three parallels were set in each group of experiments, with 0.1% (a final concentration) DMSO as a negative control, and a medium without cells and compounds as a blank control. The cell growth inhibition rate was calculated by the following formula:
(§4) Cell growth inhibition rate%=1−(ODexperimental group−ODblank group)/(ODnegative group−ODblank group)×100%
(§5) 4) IC50 calculation: The semi-inhibitory concentration of the compound acting on cell was calculated using GradPad Prism 5 software according to the measured cell growth inhibition rate.
(§6) Human lung cancer cells A549, human gastric cancer cells BGC-823, human liver cancer cells HepG-2 and human breast cancer cells MCF-7, human osteosarcoma cells U2OS, human prostate cancer cells LNCAP cultured in vitro were added in a 96-well culture plate at 1,000-10,000 cells/well, incubated until adherence, and then the compound was added. As to other procedures, please refer to the method (1) above.

[2] = test system: human gastric cancer cells BGC-823; assay: MTS cell growth inhibition, BGC-823; conditions: compound concentration 10 μM, 48 h, read-out: Inhibition rate against BGC-823 at 10 μM (%)
Protocol: as §1, §2, §3, §4, §5, §6

[3] = test system: human liver cancer cells HepG-2; assay: MTS cell growth inhibition, HepG-2; conditions: HepG2, compound concentration 10 μM, 48 h, read-out: Inhibition rate against HepG-2 at 10 μM (%)
Protocol: as §1, §2, §3, §4, §5, §6

[4] = test system: human breast cancer cells MCF-7; assay: MTS cell growth inhibition, MCF-7; conditions: MCF7, compound concentration 10 μM, 48 h, read-out: Inhibition rate against MCF-7 at 10 μM (%)
Protocol: as §1, §2, §3, §4, §5, §6

[5] = test system: Human promyelocytic leukemia cells HL-60; assay: MTS cell growth inhibition, HL-60; conditions: Homo sapiens, HL-60; compound concentration 10 μM; 48 h; MTS; read-out: Inhibition rate against HL-60 at 10 μM (%)
Protocol: as §1, §2, §3, §4, §5

[6] = test system: human osteosarcoma cells U2OS; assay: MTS cell growth inhibition, U2OS; conditions: Homo sapiens, U2OS; compound concentration 10 μM; 48 h; MTS; read-out: Inhibition rate against U2OS at 10 μM (%)
Protocol: as §1, §2, §3, §4, §5, §6

[7] = test system: human prostate cancer cells LNCAP; assay: MTS cell growth inhibition, LNCAP; conditions: Homo sapiens, LNCaP; compound concentration 10 μM; 48 h; MTS; read-out: Inhibition rate against LNCAP at 10 μM (%)
Protocol: as §1, §2, §3, §4, §5, §6

[8] = test system: lung cancer cell line NCI-1975; assay: Growth inhibitory activity, NCI-1975; conditions: growth inhibition; read-out: Lung cancer cells IC50 NCI-1975
[9] = test system: lung cancer cell line HCC827; assay: Growth inhibitory activity, HCC827; conditions: Homo sapiens, growth inhibition, read-out: Lung cancer cells IC50 HCC827
[10] = test system: human embryo lung cell line WI-38; assay: Growth inhibitory activity, WI-38; conditions: growth inhibition, normal cells
[11] = test system: human embryo lung cell line HFL-1; assay: Growth inhibitory activity, HFL-1; conditions: HFL1, growth inhibition, normal cells
leukemia cell line SHI-1 = assay: Growth inhibitory activity, SHI-1; conditions: growth inhibition; read-out: Leukemia cells IC50 SHI-1
leukemia cell line THP-1 = assay: Growth inhibitory activity, THP-1; conditions: Homo sapiens, growth inhibition, read-out: Leukemia cells IC50 THP-1
leukemia cell line NB-4 = assay: Growth inhibitory activity, NB4; conditions: growth inhibition; read-out: Leukemia cells IC50 NB4
[12] = test system: tumor cells (NCI-1975, HCC827, A549, SHI-1, THP-1, NB-4); assay: Growth inhibition of tumor cells (summary over cell lines); conditions: range over lung cancer and leukemia cell lines
Protocol: as §1, §2
as §3, with “Three parallels were set in each group of experiments, with 0.1% (a final concentration) DMSO as a negative control, and a medium without cells and compounds as a blank control.” left out, “formula: […]” for “formula:”
4) IC50 calculation: The semi-inhibitory concentration of the compound acting on cell was calculated using GradPad Prism 5 software according to the measured cell growth inhibition rate. […]

[13] = test system: normal human embryo lung cells (WI-38 and HFL-1); assay: Growth of normal human embryo lung cells (summary)

- IC50 ([1]; growth inhibition): 30 nM
- IC50 [9]: 8 nM
- IC50 (leukemia cell line SHI-1): 221 nM
- IC50 (leukemia cell line THP-1): 2460 nM
- IC50 (leukemia cell line NB-4): 280 nM
SMILES: CC(C)Oc1ccc(NC(=O)c2cc3scnc3[nH]2)cc1 [Compound I-2]
- inhibition at 10 µM ([1]; compound concentration 10 μM, 48 h, MTS, read-out: Inhibition rate against A549 at 10 μM (%)): 81.9%
- inhibition at 10 µM [2]: 61.7%
- inhibition at 10 µM [3]: 60.1%
- inhibition at 10 µM [4]: 23.1%
- inhibition at 10 µM [5]: < 0%
- inhibition at 10 µM [6]: 19.4%
- inhibition at 10 µM [7]: 22.2%
- IC50 [8]: 57 nM
- IC50 [10]: 5620 nM
- IC50 [11]: 8590 nM
- IC50 [12]: 8 to 280 nM
- IC50 [13]: > 5000 nM

— patent publication US20200325156A1, “HETEROARYL AMIDE COMPOUNDS, PREPARATION METHOD THEREFOR, PHARMACEUTICAL COMPOSITIONS THEREOF, AND APPLICATIONS THEREOF” (Rui Jin Hospital Affiliated to Shanghai Jiao Tong …, priority 2017, published 2020)
